Where “and” joins values, the source holds several entries; their conditions need not be identical. Identical values can stand only once. Like-named read-outs stand apart in the source and are kept apart here. Values belong to the molecule of their own block, whether it stands above or below them.
Columns and labels:
[1] = tested on: P. falciparum (Dd2 strain); test: ABS P. falciparum growth inhibition, SYBR Green I assay, 72 h endpoint; format: cell-based, Plasmodium falciparum; settings: for EC50: Plasmodium falciparum, DD2, SYBR Green I, 72 h endpoint, read-out: Dd2 strain P. falciparum growth inhibition EC50; for loss of growth inhibition potency (EC50) relative to 1: Dd2 strain
Experimental: Parasites were maintained in O-positive human erythrocytes (Grifols, Memphis, TN, USA) at 5% hematocrit in RPMI 1640 medium supplemented with 5 g L^−1 Albumax I (Gibco Life Technologies), 2 g L^−1 glucose (Sigma-Aldrich), 2.3 g L^−1 sodium bicarbonate (Sigma-Aldrich), 370 μM hypoxanthine (Sigma-Aldrich), 25 mM HEPES, and 20 mg L^−1 gentamicin (Gibco Life Technologies). The parasites were kept at 37 °C under reduced-oxygen conditions (5% CO2, 5% O2, and 90% N2).
(§1) […]. MMV008138 (1) was used as control. The percentage of growth was normalized to that of untreated control parasites in the presence of 0.1% DMSO. Background determinations were made using uninfected erythrocytes. Two or more independent experiments in duplicate were performed. The EC50 values were calculated with GraphPad Prism 9 (GraphPad Software Ltd.) using nonlinear regression curve fitting with variable slope (four parameters) and represent the average and their standard error of the mean (S.E.M.). To assess whether 20a–e specifically targeted the apicoplast, the recovery of growth in the presence of inhibitor and isopentenyl diphosphate (IPP) was performed as described previously.[8] Briefly, parasites were grown in the presence or absence of 200 μM IPP along with a serial dilution (10 μM to 0.01 μM) or single concentration (10 or 20 μM) of drug. […] All conditions were set in 96-well half area plates using highly synchronous ring-stage parasite cultures (100 μL per well at 1% hematocrit and 1% parasitemia) and incubated for 72 h under normal culture conditions. Parasite growth was measured by the SYBR green I assay.

[2] = tested on: Plasmodium berghei ANKA expressing luciferase (PbGFP-Luccon); test: In vivo efficacy in P. berghei-infected mice (luminescence on Day 7)
Experimental: 2. In vivo efficacy studies of 1 (NYU) in P. berghei-infected mice (po and iv) Efficacy of 1 in P. berghei-infected mice was assessed at the Anti-Infectives Core Facility, Department of Microbiology, Grossman School of Medicine, New York University.
A. Oral Administration Protocol
Three groups of five female Swiss Webster mice weighing 25 to 30 g were used for vehicle […]
berghei ANKA expressing luciferase (PbGFP-Luccon) obtained from a donor infected mouse.10 […]
2 to 6 and imaged on day 7.
Figure S1. Dosing and imaging timeline of P. berghei-infected mice. […]
Day 7 as described in the text.
The vehicle for all groups was 0.5% (hydroxypropyl)methyl cellulose, 0.5% Tween-80.
For the surviving mice, o n day 7 after infection, mice were anesthetized by inhalation of isofluorane and injected via i.p. with 150 mg/kg of luciferase substrate dissolved in PBS (D-Luciferin Potassium Salt , Gold Biotechnology ).
Mice were imaged 5 to 10 min after inj ection of luciferin using an IVIS imager (Lumina II In Vivo Imaging System; Perkin -Elmer). The data acquisition and analysis were performed with LivingImage (Xenogen). Accumulated light intensity was measured in each mouse to determine the baseline infection levels before treatment .
(1 picture or pasted object on this page, not shown here)
B. IV Administration Protocol
One group of four female Swiss Webster mice weighing 25 to 30 g were used for vehicle control, and groups of five mice were used for 1 treatment (IV, 2 x 30 mg/kg/d) and the positive […]
On Day 0, mice were infected via intraperitoneal (i.p.) […]
from a donor infected mouse. 10 As shown below in Figure S2 (and legend), mice were treated […]
Figure S2. Dosing and imaging timeline of P. berghei-infected mice. Vehicle and 1 (30 mpk) treatments were administered IV twice -daily on Days 2-6. […]
administered i .p. once-daily. Mice were imaged on Day 7, as described in the text.
The vehicle for this study was 30%PEG, 40% Captisol (30%w/v solution).
Table S2. Luminescence Data after background subtraction for IV dosing of Vehicle, 1, and IP […]
Table S9. Concentration of 20c vs time in mice. […]
Figure S6. Dosing and imaging timeline of P. berghei-infected mice. […]

[3] = tested on: P. falciparum (Dd2 strain); settings: 72 h exposure, multidrug-resistant Dd2 strain; reported values; read-out: Dd2 strain EC50; cited from earlier work
[4] = tested on: P. falciparum (Dd2 strain); test: Metabolic rescue of parasite growth by isopentenyl diphosphate (IPP) supplementation; format: cell-based, Plasmodium falciparum; settings: drug at 10 μM
Experimental: as §1

[5] = Mouse microsomal stability (authors' laboratory, UPLC/MS/MS); settings: presence of NADPH
Experimental: Mouse microsomal stability of 20a, 20c, 20d was first assessed in our laboratory. […]
and coumarin were used as controls . Microsomal stability was assessed by ultra-performance liquid chromatography and high -resolution mass spectrometry […]
MA). Potassium phosphate monobasic, potassium phosphate dibasic, and coumarin were purchased from Sigma-Aldrich (St. Louis, MO). Briefly, compound incubations were carried out by the addition of mouse liver microsomes (0.5 mg/ml) in 0.05 M potassium phosphate buffer (pH 7.4), solution A and B, and preincubated at 37°C for 5 min. Control experiments were also carried out in the absence of NADPH solution A and B. Coumarin reaction was used as positive control. Reactions were terminated by adding acetonitrile. Sample analysis was performed on an IonKey/MS system composed of an ACQUITY UPLC M-Class, the ionKey source, and an iKey BEH C18 130 Å 1.7 µm 150 µm x 50 mm column coupled to a Synapt G2-Si mass spectrometer (Waters Corporation, Milford, MA, USA). Separation was accomplished using a binary gradient system consisting of 0.1% formic acid in water (mobile phase A) and 0.1% formic acid in acetonitrile (mobile phase B). The linear gradient was programmed as follows: 0-3 min 1% B, 3- […]
was 3 µL/min, the injection volume was 3 µL in full loop mode, and the iKey temperature was set at 40°C. MS analyses were performed acquiring in MSE mode from 80 to 1500 m/z in positive electrospray ionization mode with a capillary voltage of 3 kV. Data were collected in two channels all the time: low collision energy (6.0 V), for the molecular ions, and high collision energy (15-40 V), for product ions. The source temperature was set at 110°C. Leucine […]
scan at 20 s intervals. Infusion flow rate for lock mass was 1 μL/min. The microsomal stability was determined using MassLynx software (Waters Corporation, Milford, MA, USA). Relative amounts were calculated by comparing the peak area of each evaluated compound at time 0 minutes to its corresponding area at times 45, 90 and 180 minutes to return a ratio.

[6] = Table S2, Days 2-6, imaged Day 7, Cmpd 1 30 mg/kg 2 x daily IV, CQ 20 mg/kg 1 x daily i.p.
[7] = Table 2, enantiopure, average ± S.E.M

SMILES: Cc1cccc2[nH]c3c(c12)C[C@@H](C(=O)O)N[C@@H]3c1ccc(Cl)cc1Cl (racemic) [(±)-16a]
EC50 ([1]; Table 1, racemic samples): > 10 µM

SMILES: Cc1ccc2[nH]c3c(c2c1)C[C@@H](C(=O)O)N[C@@H]3c1ccc(Cl)cc1Cl (racemic) [(±)-16b]
EC50 ([1]; Table 1, racemic samples): > 10 µM

SMILES: Cc1ccc2c3c([nH]c2c1)[C@@H](c1ccc(Cl)cc1Cl)N[C@H](C(=O)O)C3 (racemic) [(±)-16c]
EC50 ([1]; Table 1, racemic samples): > 10 µM

SMILES: Cc1cccc2c3c([nH]c12)[C@@H](c1ccc(Cl)cc1Cl)N[C@H](C(=O)O)C3 (racemic) [(±)-16d]
EC50 ([1]; Table 1, racemic samples): > 10 µM

SMILES: O=C(O)[C@@H]1Cc2c([nH]c3cccc(C(F)(F)F)c23)[C@@H](c2ccc(Cl)cc2Cl)N1 (racemic) [(±)-17a]
EC50 ([1]; Table 1, racemic samples): > 10 µM

SMILES: O=C(O)[C@@H]1Cc2c([nH]c3cc(C(F)(F)F)ccc23)[C@@H](c2ccc(Cl)cc2Cl)N1 (racemic) [(±)-17c]
EC50 ([1]; Table 1, racemic samples): 1.25 to 2.5 µM

SMILES: O=C(O)[C@@H]1Cc2c([nH]c3ccc(Br)cc23)[C@@H](c2ccc(Cl)cc2Cl)N1 (racemic) [(±)-18b]
EC50 ([1]; Table 1, racemic samples): > 10 µM

SMILES: O=C(O)[C@@H]1Cc2c([nH]c3cccc(Cl)c23)[C@@H](c2ccc(Cl)cc2Cl)N1 (racemic) [(±)-19a]
EC50 ([1]; Table 1, racemic samples): > 10 µM

SMILES: CCN(CC)CCCC(C)Nc1ccnc2cc(Cl)ccc12 (centres unmarked) [CQ, chloroquine]
Luminescence AVG ([2]; Table S1, oral 1 x daily Days 2-6, imaged Day 7, CQ 20 mg/kg): 4.65E+03 | Live/Dead and luminescence, individual mice ([2]; Table S1, oral 1 x daily Days 2-6, imaged Day 7, Cmpd 1 45 mg/kg, CQ 20 mg/kg): 4.72E+03 and 4.45E+03 and 4.90E+03 and 4.60E+03 and 4.61E+03 | Luminescence after background subtraction AVG [2, 6]: 2.29E+03 | Luminescence after background subtraction, individual mice [2, 6]: 0.00E+00 and 4.64E+03 and 2.76E+03 and 3.48E+03 | Luminescence after background subtraction, individual mice ([2]; Table S10, 40 mg/kg 1 x daily PO Days 2-6, imaged Day 7): 4.90E+03 and 3.85E+03 and 4.20E+03 | treated mice survived to Day 7 ([2]; oral Days 2-6): 5

SMILES: O=C(O)[C@@H]1Cc2c([nH]c3ccccc23)[C@@H](c2ccc(Br)cc2Cl)N1 [Compound 2]
EC50 [3]: 0.32 ± 0.06 µM

SMILES: O=C(O)[C@@H]1Cc2c([nH]c3ccccc23)[C@@H](c2ccccc2Cl)N1 [Compound 3]
EC50 [3]: 3.28 µM

SMILES: O=C(O)[C@@H]1Cc2c([nH]c3ccccc23)[C@@H](c2ccc(Cl)cc2)N1 [Compound 4]
EC50 [3]: 1.17 µM

SMILES: O=C(O)[C@@H]1Cc2c([nH]c3ccccc23)[C@@H](c2ccccc2)N1 [Compound 5]
EC50 [3]: > 10 µM

SMILES: NC(=O)[C@@H]1Cc2c([nH]c3ccccc23)[C@@H](c2ccc(Cl)cc2Cl)N1 [Compound 6]
EC50 [3]: 1.2 µM

SMILES: CNC(=O)[C@@H]1Cc2c([nH]c3ccccc23)[C@@H](c2ccc(Cl)cc2Cl)N1 [Compound 7]
EC50 [3]: 0.19 ± 0.03 µM

SMILES: CCNC(=O)[C@@H]1Cc2c([nH]c3ccccc23)[C@@H](c2ccc(Cl)cc2Cl)N1 [Compound 8]
EC50 [3]: ~5 µM

SMILES: CCCCNC(=O)[C@@H]1Cc2c([nH]c3ccccc23)[C@@H](c2ccc(Cl)cc2Cl)N1 [Compound 9]
EC50 [3]: > 10 µM

SMILES: CC(C)NC(=O)[C@@H]1Cc2c([nH]c3ccccc23)[C@@H](c2ccc(Cl)cc2Cl)N1 [Compound 10]
EC50 [3]: ~10 µM

SMILES: O=c1ccc2ccccc2o1 [coumarin]
% drug remaining ([5]; 0 min): 100% | % drug remaining ([5]; 45 min): 27% | % drug remaining ([5]; 90 min): 5%

Continued, in another order:

EC50 [1, 7]: > 10 µM
SMILES: O=C(O)[C@@H]1Cc2c([nH]c3cccc(Br)c23)[C@@H](c2ccc(Cl)cc2Cl)N1 [Compound 18a]

loss of growth inhibition potency (EC50) relative to 1 [1]: 17 fold | EC50 [1, 7]: 4.3 ± 0.6 µM
SMILES: O=C(O)[C@@H]1Cc2c([nH]c3cc(Br)ccc23)[C@@H](c2ccc(Cl)cc2Cl)N1 [Compound 18c]

EC50 [1, 7]: > 10 µM
SMILES: O=C(O)[C@@H]1Cc2c([nH]c3c(Br)cccc23)[C@@H](c2ccc(Cl)cc2Cl)N1 [Compound 18d]

loss of growth inhibition potency (EC50) relative to 1 [1]: 5 fold | EC50 [1, 7]: 1.3 ± 0.1 µM
SMILES: O=C(O)[C@@H]1Cc2c([nH]c3cc(Cl)ccc23)[C@@H](c2ccc(Cl)cc2Cl)N1 [Compound 19c]

EC50 [1, 7]: 1.25 to 2.5 µM
SMILES: O=C(O)[C@@H]1Cc2c([nH]c3ccc(F)cc23)[C@@H](c2ccc(Cl)cc2Cl)N1 [Compound 20b]

EC50 [1, 7]: 0.964 ± 0.063 µM
SMILES: O=C(O)[C@@H]1Cc2c([nH]c3cc(F)cc(F)c23)[C@@H](c2ccc(Cl)cc2Cl)N1 [Compound 20e]
% recovery (200 μM IPP) [4]: 80%@10 μM

EC50 [1, 7]: > 10 µM
SMILES: N#Cc1cccc2[nH]c3c(c12)C[C@@H](C(=O)O)N[C@@H]3c1ccc(Cl)cc1Cl [Compound 21a]

EC50 [1, 7]: > 10 µM
SMILES: N#Cc1ccc2[nH]c3c(c2c1)C[C@@H](C(=O)O)N[C@@H]3c1ccc(Cl)cc1Cl [Compound 21b]

EC50 [1, 7]: > 20 µM
SMILES: N#Cc1ccc2c3c([nH]c2c1)[C@@H](c1ccc(Cl)cc1Cl)N[C@H](C(=O)O)C3 [Compound 21c]

— article PMC12378621, “Benzo-ring modification on Malaria Box hit MMV008138: effects on antimalarial potency and microsomal stability” (RSC Medicinal Chemistry, 2025)
